The source made the active and inactive calls.
How the values were obtained:
A-375 = assay: proliferation inhibition in MITF-low A375 cells – cell-based, cherry-pick samples, set 2, counter-screen for MITF modulator project, dose response (AID 540335); type: functional; conditions: Homo sapiens
[1] = viability of HCT116 lacking mutant beta-catenin – cell-based, human colon tumor, dose response (AID 1045); type: functional;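 note: HCT116 colon tumor cells with beta catenin knocked out; cells exposed to compound for 60 hours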
[2] = viability of PTEN-deleted HCT116 cells – cell-based, HCT116 PTEN knockout, dose response (AID 1047); type: functional;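 note: HCT116 colon tumor cells with PTEN knocked out; cells exposed to compound for 60 hours before readout; potency for loss of cell viability measured by luminescence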
[3] = target: T1, Microphthalmia-associated transcription factor (Homo sapiens, UniProt O75030); assay: reducers of TRPM1 reporter luminescence, concentration series – cell-based, SK-MEL-5, cherry-picked, set 3, MITF inhibitor project, dose response (AID 493073); type: functional;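 note: SK-MEL-5 melanoma cells with luciferase driven by the MITF target TRPM1 promoter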
T1 sequence (O75030 whole entry): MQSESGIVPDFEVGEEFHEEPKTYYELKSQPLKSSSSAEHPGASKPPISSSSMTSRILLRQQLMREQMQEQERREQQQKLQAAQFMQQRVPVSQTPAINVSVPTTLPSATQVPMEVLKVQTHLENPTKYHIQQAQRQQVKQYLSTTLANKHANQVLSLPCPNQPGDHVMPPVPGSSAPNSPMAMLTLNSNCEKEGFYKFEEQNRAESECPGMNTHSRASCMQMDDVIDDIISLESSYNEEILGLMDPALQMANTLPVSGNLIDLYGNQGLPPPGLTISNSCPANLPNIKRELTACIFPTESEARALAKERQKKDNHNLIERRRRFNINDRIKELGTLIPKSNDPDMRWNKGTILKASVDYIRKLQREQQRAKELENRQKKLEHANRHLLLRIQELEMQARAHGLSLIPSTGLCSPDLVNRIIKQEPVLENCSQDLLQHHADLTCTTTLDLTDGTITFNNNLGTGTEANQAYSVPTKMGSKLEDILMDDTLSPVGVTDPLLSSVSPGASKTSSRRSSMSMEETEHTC

Beta-galactosidase = Beta-galactosidase (Escherichia coli, UniProt Q8VNN2); assay: detection-enzyme interference by beta-gal modulators – biochemical, E. coli enzyme, set 3, artefact control for CCR6 antagonist project, dose response (AID 504712); type: functional
Sequence of Beta-galactosidase (Q8VNN2 whole entry): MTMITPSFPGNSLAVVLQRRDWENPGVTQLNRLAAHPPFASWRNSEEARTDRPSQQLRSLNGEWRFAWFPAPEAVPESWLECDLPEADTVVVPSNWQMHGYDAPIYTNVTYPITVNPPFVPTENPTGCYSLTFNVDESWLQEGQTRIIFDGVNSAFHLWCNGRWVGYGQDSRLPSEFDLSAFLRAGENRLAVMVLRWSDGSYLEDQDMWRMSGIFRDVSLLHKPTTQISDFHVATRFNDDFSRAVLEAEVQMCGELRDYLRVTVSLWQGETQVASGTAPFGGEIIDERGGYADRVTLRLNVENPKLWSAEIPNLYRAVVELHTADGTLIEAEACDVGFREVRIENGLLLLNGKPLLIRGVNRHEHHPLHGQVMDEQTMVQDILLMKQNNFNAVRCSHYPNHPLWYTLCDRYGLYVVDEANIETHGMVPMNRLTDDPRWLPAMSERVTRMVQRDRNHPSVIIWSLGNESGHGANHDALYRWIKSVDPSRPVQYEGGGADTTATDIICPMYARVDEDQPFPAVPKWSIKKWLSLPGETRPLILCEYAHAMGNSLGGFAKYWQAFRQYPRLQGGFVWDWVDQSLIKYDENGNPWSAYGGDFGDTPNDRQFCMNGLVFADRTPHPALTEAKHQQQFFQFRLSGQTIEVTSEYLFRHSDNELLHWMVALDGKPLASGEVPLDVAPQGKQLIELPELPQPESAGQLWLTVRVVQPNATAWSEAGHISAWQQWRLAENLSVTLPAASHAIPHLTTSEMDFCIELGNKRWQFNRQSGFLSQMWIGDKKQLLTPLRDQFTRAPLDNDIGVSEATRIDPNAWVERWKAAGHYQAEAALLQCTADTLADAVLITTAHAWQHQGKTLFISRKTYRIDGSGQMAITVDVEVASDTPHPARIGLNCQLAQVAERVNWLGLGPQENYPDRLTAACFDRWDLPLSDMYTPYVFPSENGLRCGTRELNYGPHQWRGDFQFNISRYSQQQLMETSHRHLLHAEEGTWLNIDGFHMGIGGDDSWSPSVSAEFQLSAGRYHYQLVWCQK

[4] = target: T2, Heat shock factor protein 1 (Mus musculus, UniProt P38532); assay: enhancement of HSF1-driven luciferase signal – cell-based, NIH3T3, luminescence, dose retest, confirmation (AID 435004); type: functional;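 note: stress induced by proteasome inhibitor MG132 added 30 min after compound; luciferase reporter driven by HSF1 response element in NIH3T3 cells; actives raise luminescence as potentiators of the MG132 stress response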
T2 sequence (P38532 whole entry): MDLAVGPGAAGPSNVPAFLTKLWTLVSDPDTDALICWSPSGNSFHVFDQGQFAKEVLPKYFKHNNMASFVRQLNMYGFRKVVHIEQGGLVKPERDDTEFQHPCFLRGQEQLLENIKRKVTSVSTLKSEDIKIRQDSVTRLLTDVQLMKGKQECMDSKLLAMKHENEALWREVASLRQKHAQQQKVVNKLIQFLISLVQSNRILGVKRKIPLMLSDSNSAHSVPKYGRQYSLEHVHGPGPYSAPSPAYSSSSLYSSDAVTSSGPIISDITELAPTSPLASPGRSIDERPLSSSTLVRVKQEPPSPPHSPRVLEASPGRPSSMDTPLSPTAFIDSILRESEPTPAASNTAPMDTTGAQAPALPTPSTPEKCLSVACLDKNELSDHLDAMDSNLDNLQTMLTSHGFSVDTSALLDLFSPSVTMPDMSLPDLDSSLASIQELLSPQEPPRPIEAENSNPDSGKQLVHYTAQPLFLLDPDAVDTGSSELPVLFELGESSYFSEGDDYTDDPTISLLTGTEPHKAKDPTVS

[5] = target: Serine/threonine-protein phosphatase (Homo sapiens, UniProt Q9BPW0); assay: inhibition of protein phosphatase 5 activity – biochemical, fluorescence, dose response (AID 2395)
Sequence of Serine/threonine-protein phosphatase (Q9BPW0 whole entry): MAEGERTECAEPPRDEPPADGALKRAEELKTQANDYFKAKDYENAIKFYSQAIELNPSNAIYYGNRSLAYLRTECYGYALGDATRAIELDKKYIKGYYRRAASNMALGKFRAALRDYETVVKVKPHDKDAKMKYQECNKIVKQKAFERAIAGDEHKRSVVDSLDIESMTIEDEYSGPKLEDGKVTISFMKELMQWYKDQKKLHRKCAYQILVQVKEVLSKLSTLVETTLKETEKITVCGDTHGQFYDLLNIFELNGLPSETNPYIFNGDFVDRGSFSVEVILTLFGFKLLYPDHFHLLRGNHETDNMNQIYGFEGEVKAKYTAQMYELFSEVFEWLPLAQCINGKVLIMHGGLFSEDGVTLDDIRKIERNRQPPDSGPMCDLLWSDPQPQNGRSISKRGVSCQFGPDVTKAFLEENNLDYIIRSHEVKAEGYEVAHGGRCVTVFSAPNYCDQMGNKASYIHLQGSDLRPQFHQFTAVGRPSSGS

[6] = target: Serine/threonine-protein phosphatase PP1-alpha catalytic subunit (Homo sapiens, UniProt P62136); assay: inhibition of protein phosphatase 1 activity – biochemical, fluorescence, dose response (AID 2394)
Sequence of Serine/threonine-protein phosphatase PP1-alpha catalytic subunit (P62136 whole entry): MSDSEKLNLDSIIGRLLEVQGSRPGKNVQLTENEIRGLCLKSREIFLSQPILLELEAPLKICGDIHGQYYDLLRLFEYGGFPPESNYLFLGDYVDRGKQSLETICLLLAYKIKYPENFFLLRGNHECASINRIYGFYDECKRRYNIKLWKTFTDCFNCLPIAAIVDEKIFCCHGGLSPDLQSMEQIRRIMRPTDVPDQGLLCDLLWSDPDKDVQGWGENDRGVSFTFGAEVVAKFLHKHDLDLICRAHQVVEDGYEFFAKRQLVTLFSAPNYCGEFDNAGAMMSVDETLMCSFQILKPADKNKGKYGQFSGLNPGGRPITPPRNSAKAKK

[7] = target: Induced myeloid leukemia cell differentiation protein Mcl-1 (Homo sapiens, UniProt Q07820); assay: blockers of MCL1 binding to BIM peptide – biochemical, fluorescence polarization, BIM-BH3 peptide, 1536-well, dose response (AID 2217)
Sequence of Induced myeloid leukemia cell differentiation protein Mcl-1 (Q07820 whole entry): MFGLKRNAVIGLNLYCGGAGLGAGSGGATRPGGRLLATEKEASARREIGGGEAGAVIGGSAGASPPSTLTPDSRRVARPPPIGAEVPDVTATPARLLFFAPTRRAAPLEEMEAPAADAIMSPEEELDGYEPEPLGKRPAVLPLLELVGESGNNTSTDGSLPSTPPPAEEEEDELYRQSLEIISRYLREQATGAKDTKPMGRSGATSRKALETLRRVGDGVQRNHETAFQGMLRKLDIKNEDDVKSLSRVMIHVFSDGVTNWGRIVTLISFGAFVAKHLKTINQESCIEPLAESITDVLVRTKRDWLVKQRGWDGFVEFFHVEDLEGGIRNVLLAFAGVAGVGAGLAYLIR

Protein Tat = target: T3, Protein Tat (Human immunodeficiency virus type 1 group M subtype B (isolate HXB2)(HIV-1), UniProt P04608); type: functional;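 note: tat binding to TAR RNA read out by fluorescence polarization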
T3 sequence (P04608 whole entry): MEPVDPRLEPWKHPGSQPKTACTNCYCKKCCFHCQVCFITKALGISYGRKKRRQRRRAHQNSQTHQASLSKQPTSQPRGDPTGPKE

Bcl-2-like protein 1 = Bcl-2-like protein 1 (Homo sapiens, UniProt Q07817); assay: blockers of BCLXL peptide binding – biochemical, fluorescence polarization, 1536-well, selectivity assay for MCL1 inhibitor project, dose response (AID 2218)
Sequence of Bcl-2-like protein 1 (Q07817 whole entry, the tested form may be a part): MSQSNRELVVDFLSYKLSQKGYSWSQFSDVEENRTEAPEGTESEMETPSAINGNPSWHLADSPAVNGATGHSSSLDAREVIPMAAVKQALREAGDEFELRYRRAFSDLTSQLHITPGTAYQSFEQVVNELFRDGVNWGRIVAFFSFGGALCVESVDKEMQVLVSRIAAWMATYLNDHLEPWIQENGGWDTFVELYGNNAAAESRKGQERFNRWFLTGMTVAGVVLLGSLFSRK

[8] = target: T4, Carboxy-terminal domain RNA polymerase II polypeptide A small phosphatase 1 (Homo sapiens, UniProt Q9GZU7); assay: CTDSP1 inhibitors, concentration-response, biochemical, absorbance readout, ultra-high-throughput screen actives (AID 540297); type: functional
T4 sequence (Q9GZU7 whole entry): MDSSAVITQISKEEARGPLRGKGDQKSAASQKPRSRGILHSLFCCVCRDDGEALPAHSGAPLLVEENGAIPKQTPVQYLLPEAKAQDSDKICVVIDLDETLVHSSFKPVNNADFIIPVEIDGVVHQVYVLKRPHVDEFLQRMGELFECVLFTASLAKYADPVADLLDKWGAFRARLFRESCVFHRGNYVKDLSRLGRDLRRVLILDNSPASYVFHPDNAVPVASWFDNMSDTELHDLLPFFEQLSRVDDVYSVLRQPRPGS

NADPH oxidase 1 = NADPH oxidase 1 (Homo sapiens, UniProt Q9Y5S8); type: functional, cell-based;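 note: Cell-based assay with luminescence read-out, IC50 derived from inhibitor dose-response curves; intracellular ROS from endogenous NOX1 in intact HT29 colon cancer cells; potency of inhibitors that lower the ROS luminescence signal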
Sequence of NADPH oxidase 1 (Q9Y5S8 whole entry): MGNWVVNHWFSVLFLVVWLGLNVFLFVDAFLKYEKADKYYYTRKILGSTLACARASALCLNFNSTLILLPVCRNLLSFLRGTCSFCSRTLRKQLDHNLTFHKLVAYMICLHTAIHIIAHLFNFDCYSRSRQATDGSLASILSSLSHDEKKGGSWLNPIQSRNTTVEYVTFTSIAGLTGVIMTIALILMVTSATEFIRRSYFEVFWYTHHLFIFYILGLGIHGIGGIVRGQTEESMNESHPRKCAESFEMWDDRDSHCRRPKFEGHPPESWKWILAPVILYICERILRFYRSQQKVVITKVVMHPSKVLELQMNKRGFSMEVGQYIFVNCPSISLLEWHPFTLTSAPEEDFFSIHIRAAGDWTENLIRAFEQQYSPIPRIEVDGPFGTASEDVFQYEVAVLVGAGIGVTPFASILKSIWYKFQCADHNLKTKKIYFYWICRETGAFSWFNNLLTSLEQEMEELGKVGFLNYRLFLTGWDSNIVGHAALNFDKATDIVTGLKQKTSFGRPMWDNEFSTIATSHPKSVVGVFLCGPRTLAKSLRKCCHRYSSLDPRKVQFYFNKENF

Leucine aminopeptidase = target: T5, Leucine aminopeptidase (Plasmodium falciparum 3D7, UniProt Q8IL11); assay: P. falciparum M17LAP inhibitors, primary screen, biochemical, fluorogenic H-Leu-NHMec substrate, 1536-well (AID 1619); type: functional
T5 sequence (Q8IL11 whole entry): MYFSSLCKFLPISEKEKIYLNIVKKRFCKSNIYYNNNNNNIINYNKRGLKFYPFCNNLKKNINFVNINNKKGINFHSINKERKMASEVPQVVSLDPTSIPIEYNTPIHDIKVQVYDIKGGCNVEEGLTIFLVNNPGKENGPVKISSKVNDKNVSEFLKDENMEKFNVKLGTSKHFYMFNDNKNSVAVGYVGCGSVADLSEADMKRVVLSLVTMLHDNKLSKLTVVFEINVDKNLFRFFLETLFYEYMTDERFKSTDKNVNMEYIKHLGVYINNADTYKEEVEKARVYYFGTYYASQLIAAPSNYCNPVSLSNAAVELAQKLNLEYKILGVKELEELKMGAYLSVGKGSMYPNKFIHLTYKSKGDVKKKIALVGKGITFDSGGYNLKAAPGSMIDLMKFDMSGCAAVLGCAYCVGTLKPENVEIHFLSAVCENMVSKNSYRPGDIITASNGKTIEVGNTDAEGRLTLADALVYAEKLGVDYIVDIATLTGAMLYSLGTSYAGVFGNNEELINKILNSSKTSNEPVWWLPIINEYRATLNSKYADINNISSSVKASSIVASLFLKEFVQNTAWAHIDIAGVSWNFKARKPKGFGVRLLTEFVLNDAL

Procathepsin L = Procathepsin L (Homo sapiens, UniProt P07711); assay: CTSL1 protease inhibition – biochemical, QFRET, 1536-well, counter-screen for M1/M17 aminopeptidase inhibitor project, dose response (AID 2214)
Sequence of Procathepsin L (P07711 whole entry): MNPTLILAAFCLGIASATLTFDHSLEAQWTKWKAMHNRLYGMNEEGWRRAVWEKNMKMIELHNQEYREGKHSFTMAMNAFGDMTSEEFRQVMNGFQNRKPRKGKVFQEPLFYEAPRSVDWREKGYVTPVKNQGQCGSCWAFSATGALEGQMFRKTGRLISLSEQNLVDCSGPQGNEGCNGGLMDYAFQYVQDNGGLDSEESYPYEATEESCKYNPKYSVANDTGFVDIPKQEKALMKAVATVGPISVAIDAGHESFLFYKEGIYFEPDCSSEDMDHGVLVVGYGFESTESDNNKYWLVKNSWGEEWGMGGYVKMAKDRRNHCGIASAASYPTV

Aspartyl aminopeptidase = target: T6, Aspartyl aminopeptidase (Plasmodium falciparum 3D7, UniProt Q8I2J3); assay: Counterscreen for inhibitors of M1 and M17 aminopeptidases: QFRET-based biochemical high throughput dose response assay for inhibitors of the Plasmodium falciparum M18 Aspartyl Aminopeptidase (PFM18AAP). [Related PubChem assays: 1619 (Screening assay (M17LAP inhibitors).), 1445 (Screening assay (M1AAP inhibitors).)]
T6 sequence (Q8I2J3 whole entry): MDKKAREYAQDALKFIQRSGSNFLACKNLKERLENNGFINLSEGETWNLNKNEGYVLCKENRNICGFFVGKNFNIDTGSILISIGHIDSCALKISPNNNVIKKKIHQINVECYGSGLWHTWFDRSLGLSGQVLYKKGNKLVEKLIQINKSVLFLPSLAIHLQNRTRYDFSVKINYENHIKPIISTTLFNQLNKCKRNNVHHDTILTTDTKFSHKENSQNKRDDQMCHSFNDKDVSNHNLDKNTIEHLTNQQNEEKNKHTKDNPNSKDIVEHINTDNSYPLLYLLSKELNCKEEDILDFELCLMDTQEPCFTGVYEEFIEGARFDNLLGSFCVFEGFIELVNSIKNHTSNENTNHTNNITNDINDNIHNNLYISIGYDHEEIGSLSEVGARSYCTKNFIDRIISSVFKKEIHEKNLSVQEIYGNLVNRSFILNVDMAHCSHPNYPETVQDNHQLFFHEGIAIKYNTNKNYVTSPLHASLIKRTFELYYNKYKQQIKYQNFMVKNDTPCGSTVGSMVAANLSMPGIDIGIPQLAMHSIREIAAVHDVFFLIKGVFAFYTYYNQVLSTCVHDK

fMet-Leu-Phe receptor = fMet-Leu-Phe receptor (Homo sapiens, UniProt P21462); assay: formyl peptide receptor binders – dose response (AID 519); type: functional
Sequence of fMet-Leu-Phe receptor (P21462 whole entry): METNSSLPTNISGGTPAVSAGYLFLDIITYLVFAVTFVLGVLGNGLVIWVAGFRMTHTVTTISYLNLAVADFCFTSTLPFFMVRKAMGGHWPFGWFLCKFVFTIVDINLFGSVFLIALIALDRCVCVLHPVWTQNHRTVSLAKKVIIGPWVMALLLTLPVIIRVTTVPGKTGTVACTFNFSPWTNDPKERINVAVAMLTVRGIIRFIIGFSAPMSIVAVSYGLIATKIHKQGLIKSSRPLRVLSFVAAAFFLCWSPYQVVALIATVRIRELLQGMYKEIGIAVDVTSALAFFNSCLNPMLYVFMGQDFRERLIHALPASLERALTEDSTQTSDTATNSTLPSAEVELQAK

[9] = alpha-synuclein stem-loop luciferase translation blockers – H4 neuroglioma cells, luminescence, confirmation (AID 1988); type: functional, cell-based
[10] = fluconazole-exposed Candida albicans growth modulators – fluorescence, retest, confirmation (AID 2467); type: functional, cell-based
[11] = reduction of Shn3 3'UTR-driven luciferase in osteoblasts – cell-based, Clone20 osteoblasts, firefly luciferase, cherry-picked, dose response (AID 624132); type: functional;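 note: firefly luciferase luminescence from reporter carrying the Shn3 3'UTR in osteoblasts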
cells [12] = type: functional, cell-based
INS1 = assay: INS-1E survival protection against cytokine death – cell-based, luminescence, retest, dose response (AID 449756); type: functional; conditions: Rattus norvegicus;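 note: cell death triggered by IL-1 beta plus TNF-alpha plus IFN-gamma mixture; protective hits raise ATP signal compared with cytokine alone wells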
[13] = NIH-3T3 fibroblast cytotoxicity, dose response, cytotoxicity control, cell-based, fluorescence, Alamar Blue, secondary assay (AID 2327); type: functional;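 note: NIH-3T3 mouse fibroblasts cultured with fluconazole at 8 µg/mL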
[14] = Trypanosoma cruzi growth suppression in host cells – NIH3T3 host cells, beta-gal luminescence, confirmation (AID 2044); type: functional, cell-based;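 note: intracellular parasites grown in NIH/3T3 mouse fibroblasts as host cells; luminescent beta-galactosidase reporter signal from transgenic T. cruzi replicating inside host cells; inhibitors lower the luminescence signal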
[15] = non-specific 3'UTR reporter inhibition in Clone20-Shn3RL – cell-based, Renilla luciferase, cherry-picked, counter-screen for Shn3 inhibitor project, dose response (AID 624133); type: functional
[16] = loss of viability in HepG2 cells – cell-based, CellTiter-Glo, cherry-picked, cytotoxicity control for Shn3 inhibitor project, dose response (AID 624134); type: functional
[17] = target: T7, Mannose-6-phosphate isomerase (Homo sapiens, UniProt P34949); assay: MPI enzyme activity inhibition – biochemical, fluorescence intensity, coupled assay, primary screen (AID 1209)
T7 sequence (P34949 whole entry): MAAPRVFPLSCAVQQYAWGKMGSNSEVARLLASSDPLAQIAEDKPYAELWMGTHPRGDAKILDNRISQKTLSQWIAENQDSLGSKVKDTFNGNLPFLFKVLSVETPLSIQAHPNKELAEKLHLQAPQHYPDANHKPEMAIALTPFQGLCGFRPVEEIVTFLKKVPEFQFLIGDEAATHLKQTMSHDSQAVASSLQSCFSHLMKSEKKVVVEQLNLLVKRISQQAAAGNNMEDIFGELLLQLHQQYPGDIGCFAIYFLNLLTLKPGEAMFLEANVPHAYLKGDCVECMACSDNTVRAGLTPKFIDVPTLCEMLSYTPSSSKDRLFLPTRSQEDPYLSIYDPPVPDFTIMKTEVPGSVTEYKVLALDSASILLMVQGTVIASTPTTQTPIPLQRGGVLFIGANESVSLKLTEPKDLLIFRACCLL

[18] = target: T2, Heat shock factor protein 1; assay: decrease of HSF1-responsive luciferase luminescence – cell-based, NIH3T3, dose retest, confirmation (AID 2382); type: functional;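 note: NIH3T3 fibroblasts with HSF1-driven luciferase reporter stressed by proteasome inhibitor MG132; luminescence from HSF1-driven luciferase expression after 8 hours of MG132 stress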
[19] = NIH3T3 cell viability loss – ATP luminescence, mouse fibroblasts, counter-screen, dose response (AID 2010); type: functional, cell-based;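 note: cells exposed to compound for about 90 hours before reading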
Nonstructural protein 1 = Nonstructural protein 1 (Influenza A virus, UniProt Q194T2); type: functional, Influenza A virus (A/California/07/2009(H1N1))
Sequence of Nonstructural protein 1 (Q194T2 whole entry): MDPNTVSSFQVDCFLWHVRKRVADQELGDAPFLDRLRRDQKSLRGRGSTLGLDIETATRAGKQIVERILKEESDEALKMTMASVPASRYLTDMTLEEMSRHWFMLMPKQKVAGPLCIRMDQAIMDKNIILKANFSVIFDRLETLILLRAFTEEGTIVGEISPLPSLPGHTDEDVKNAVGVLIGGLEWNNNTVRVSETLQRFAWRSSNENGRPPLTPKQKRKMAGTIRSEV

[20] = Luminescence Cell-Based Dose Response HTS to Identify Inhibitors of 5'UTR Stem-Loop Driven Prion Protein mRNA Translation in H4 Neuroglioblastoma Cells. [Related pubchem assays: 1827 (Project Summary), 1813 (Primary HTS)]; type: functional
[21] = luciferase reporter signal suppression in cells – H4 neuroglioma cells, luminescence, dose response (AID 1990); type: functional, cell-based
cells [22] = type: functional, cell-based; remark: listed apart in the source

O=C1C(Cl)=C(N2CCN(c3ccccc3[N+](=O)[O-])CC2)C(=O)c2ccccc21
AC50 (A-375): 15.6 µM (active)
EC50 [1]: 4.51 µM (active)
EC50 [2]: 5.82 µM (active)
AC50 [3]: 3.59 µM (active)
IC50 (Beta-galactosidase): > 66.6 µM (inactive)
EC50 [4]: 0.734 µM (inconclusive)
IC50 [5]: 29.5 µM (not active)
IC50 [6]: > 67 µM (not active)

Cc1ccc(NC(=O)c2cc(-c3ccc(C)o3)nc3ccccc23)nc1
IC50 [7]: > 109 µM (not active)
IC50 (Protein Tat): > 100 µM (active)
IC50 (Bcl-2-like protein 1): > 109 µM (not active)
IC50 [8]: 4.78 µM (active)

COc1cc(-c2nc3c4ccccc4c4ccccc4c3[nH]2)ccc1O
IC50 (NADPH oxidase 1): 1.15 µM (active)

CCOC(=O)c1c(NC(=O)C2C3CCC(O3)C2C(=O)O)sc(C)c1-c1ccc(C)cc1 (stereo not drawn)
IC50 (Leucine aminopeptidase): 6.69 µM (active)
IC50 (Procathepsin L): > 59.6 µM (not active)
IC50 (Aspartyl aminopeptidase): > 73.5 µM (not active)
Ki (fMet-Leu-Phe receptor): 63.3 µM (inactive)

Oc1c(CN2CCOCC2)cc(COCc2ccccc2)c2cccnc12
EC50 [9]: 4.24 µM (active)
EC50 [10]: 1.28 µM (active)
AC50 [11]: 1.28 µM (active)
EC50 (cells [12]): > 350 µM (not active)
AC50 (INS1): 2.39 µM (active)
EC50 [13]: > 160 µM (inactive)
EC50 [14]: 1.26 µM (active)
AC50 [15]: 3.15 µM (active)
AC50 [16]: 2.13 µM (active)
IC50 [17]: 25.7 µM (active)
EC50 [18]: 36.3 µM (active)
EC50 [19]: 28 µM (active)
IC50 (Nonstructural protein 1): 4.95 µM (active)
EC50 [20]: 5.43 µM (active)
EC50 [21]: 4.97 µM (active)
EC50 (cells [22]): 6.33 µM (active)
